Experimental data taken from BindingDB's records for patent WO2022021841 (Sichuan University, 2022).

target: Replicase polyprotein 1ab (Severe acute respiratory syndrome coronavirus 2, UniProt P0DTD1); test: SARS-CoV-2 Coronavirus 3C Protease FRET Assay
Method: IC50 values were calculated by fitting a curve of Vmax to experimental values with the controls (DMSO) as the top and bottom limits of the curve. […] GraphPad Prism is the analysis tool for all measurements.

Point of comparison: `O=C(NCc1ccccn1)C(=O)[C@H](C[C@@H]1CCNC1=O)NC(=O)C1[C@@H]2CCC[C@H]2CN1C(=O)COc1ccc(Cl)cc1Cl` (stereo partly drawn) [WO2022021841, 53], Ki 63100 nM. Against it:
- COc1ccc(OCC(=O)N2C[C@H]3[C@@H](C2C(=O)N[C@H](C=O)C[C@@H]2CCNC2=O)C3(C)C)cc1 (stereo partly drawn) [WO2022021841, 32] — 1800-fold lower, 36 nM
- CC1CNC(=O)[C@@H]1C[C@H](NC(=O)C1[C@H]2CCC[C@H]2CN1C(=O)COc1cccc(-c2ccccc2)c1)C(=O)CF (stereo partly drawn) [WO2022021841, 5] — 5700-fold lower, 11 nM
- O=C[C@H](C[C@@H]1CCNC1=O)NC(=O)C1[C@@H]2CCC[C@H]2CN1C(=O)CCc1ccc(O)c(O)c1 (stereo partly drawn) [WO2022021841, 75] — 1500-fold lower, 41 nM
- COc1cccc(OCC(=O)N2C[C@H]3[C@@H](C2C(=O)N[C@H](C=O)C[C@@H]2CCNC2=O)C3(C)C)c1 (stereo partly drawn) [WO2022021841, 23] — 1700-fold lower, 37 nM
- O=C[C@H](C[C@@H]1CCNC1=O)NC(=O)C1[C@@H]2CCC[C@H]2CN1C(=O)C(F)(F)Oc1ccc(Cl)cc1Cl (stereo partly drawn) [WO2022021841, 71] — 1600-fold lower, 40 nM
- CCC[C@@H](NC(=O)C1[C@@H]2CCC[C@H]2CN1C(=O)[C@@H](c1ccccc1)C(C)C)C(=O)C(=O)NC1CC1 (stereo partly drawn) [WO2022021841, 12] — 3.7-fold lower, 16900 nM
- CC(C)(CCc1ccc(Cl)c(F)c1)C(=O)N1C[C@@H]2CCC[C@H]2C1C(=O)N[C@H](C=O)C[C@@H]1CCNC1=O (stereo partly drawn) [WO2022021841, 63] — 2400-fold lower, 26 nM
- CC1CNC(=O)[C@@H]1C[C@H](NC(=O)C1[C@H]2CCC[C@H]2CN1C(=O)COc1ccc(Cl)cc1Cl)C(=O)CF (stereo partly drawn) [WO2022021841, 4] — 5300-fold lower, 12 nM
- COC(=O)C[C@H](NC(=O)[C@@H]1[C@@H]2[C@H](CN1C(=O)/C=C/c1ccccc1)C2(C)C)C(=O)CF [WO2022021841, 2] — 570-fold lower, 110 nM
- O=C[C@H](C[C@@H]1CCNC1=O)NC(=O)C1[C@@H]2CCC[C@H]2CN1C(=O)COc1cccc(-c2ccccc2)c1 (stereo partly drawn) [WO2022021841, 46] — 6300-fold lower, 10 nM
- CC1CNC(=O)[C@@H]1C[C@H](NC(=O)C1[C@@H]2[C@H](CN1C(=O)COc1ccc(Cl)c(Cl)c1)C2(C)C)C(=O)CF (stereo partly drawn) [WO2022021841, 7] — 4200-fold lower, 15 nM
- CC1(C)[C@@H]2C(C(=O)N[C@H](C=O)Cc3ccccc3)N(C(=O)c3ccc4ccccc4c3)C[C@@H]21 (stereo partly drawn) [WO2022021841, 10] — 110-fold lower, 585 nM
- CC(C)(C)C(NC(=O)Cc1ccc(Cl)cc1Cl)C(=O)N1C[C@@H]2CCC[C@H]2C1C(=O)N[C@H](C=O)C[C@@H]1CCNC1=O (stereo partly drawn) [WO2022021841, 60] — 1900-fold lower, 33 nM
- CC(C)(C)C(NCc1ccc(Cl)cc1Cl)C(=O)N1C[C@@H]2CCC[C@H]2C1C(=O)N[C@H](C=O)C[C@@H]1CCNC1=O (stereo partly drawn) [WO2022021841, 61] — 1600-fold lower, 39 nM
- O=C[C@H](C[C@@H]1CCNC1=O)NC(=O)C1[C@@H]2CCC[C@H]2CN1C(=O)C(F)Oc1ccc(Cl)cc1Cl (stereo partly drawn) [WO2022021841, 72] — 2000-fold lower, 31 nM
- C[C@H](OCc1ccccc1)C(=O)N1C[C@@H]2CCC[C@@H]2C1C(=O)N[C@H](C=O)C[C@@H]1CCNC1=O (stereo partly drawn) [WO2022021841, 18] — 2300-fold lower, 28 nM
- CCC[C@@H](NC(=O)C1C2[C@H](CN1C(=O)[C@@H](c1ccccc1)C(C)C)C2(C)C)C(=O)C(=O)NC1CC1 (stereo partly drawn) [WO2022021841, 13] — within 1.5-fold, 82700 nM
- CC1(C)CNC(=O)[C@@H]1C[C@@H](C=O)NC(=O)C1[C@H]2[C@H](CN1C(=O)COc1ccc(Cl)cc1Cl)C2(C)C (stereo partly drawn) [WO2022021841, 55] — 2000-fold lower, 31 nM
- O=C[C@H](C[C@@H]1CCNC1=O)NC(=O)C1[C@@H]2CCC[C@H]2CN1C(=O)CCc1ccc(Cl)c(Cl)c1 (stereo partly drawn) [WO2022021841, 68] — 1800-fold lower, 35 nM
- CC1CNC(=O)[C@@H]1C[C@@H](C=O)NC(=O)C1[C@@H]2CCC[C@H]2CN1C(=O)COc1cccc(-c2ccccc2)c1 (stereo partly drawn) [WO2022021841, 47] — 5300-fold lower, 12 nM
- COc1ccc(CCC(=O)N2C[C@@H]3CCC[C@H]3C2C(=O)N[C@H](C=O)C[C@@H]2CCNC2=O)c(Cl)c1 (stereo partly drawn) [WO2022021841, 77] — 1100-fold lower, 56 nM
- COc1ccc(CNC(=O)N2C[C@@H]3CCC[C@H]3C2C(=O)N[C@H](C=O)C[C@@H]2CCNC2=O)cc1 (stereo partly drawn) [WO2022021841, 57] — 2400-fold lower, 26 nM
- CC1(C)[C@@H]2C(C(=O)N[C@H](C=O)Cc3ccccc3)N(C(=O)c3ccc4ccccc4n3)C[C@@H]21 (stereo partly drawn) [WO2022021841, 9] — 2.6-fold lower, 24200 nM
- COc1ccc(CCC(=O)N2C[C@@H]3CCC[C@H]3C2C(=O)N[C@H](C=O)C[C@@H]2CCNC2=O)cc1 (stereo partly drawn) [WO2022021841, 76] — 1200-fold lower, 51 nM
- COC(=O)C[C@H](NC(=O)[C@@H]1CCCN1C(=O)c1cc2ccccc2[nH]1)C(=O)CF [WO2022021841, 1] — 57-fold lower, 1100 nM
- O=C[C@H](C[C@@H]1CCNC1=O)NC(=O)C1[C@@H]2CCC[C@H]2CN1C(=O)CCc1ccc(O)cc1 (stereo partly drawn) [WO2022021841, 74] — 1200-fold lower, 51 nM
- COc1ccc(OC(C)C(=O)N2C[C@@H]3CCC[C@H]3C2C(=O)N[C@H](C=O)C[C@@H]2CCNC2=O)cc1 (stereo partly drawn) [WO2022021841, 29] — 810-fold lower, 78 nM
- O=C[C@H](C[C@@H]1CCNC1=O)NC(=O)C1[C@@H]2CCC[C@H]2CN1C(=O)CCc1cccc(Cl)c1 (stereo partly drawn) [WO2022021841, 66] — 1800-fold lower, 36 nM
- CC(C)(Oc1ccc(Cl)cc1Cl)C(=O)N1C[C@@H]2CCC[C@H]2C1C(=O)N[C@H](C=O)C[C@@H]1CCNC1=O (stereo partly drawn) [WO2022021841, 39] — 1900-fold lower, 33 nM
- CC(C)(Oc1ccc(Cl)cc1Cl)C(=O)N1Cc2ccccc2CC1C(=O)N[C@H](C=O)C[C@@H]1CCNC1=O (stereo partly drawn) [WO2022021841, 38] — 690-fold lower, 91 nM
- CC1CNC(=O)[C@@H]1C[C@@H](C=O)NC(=O)C1[C@@H]2CCC[C@H]2CN1C(=O)C(C)(C)Oc1ccc(Cl)cc1Cl (stereo partly drawn) [WO2022021841, 41] — 1100-fold lower, 56 nM
- O=C[C@H](C[C@@H]1CCNC1=O)NC(=O)C1[C@@H]2CCC[C@H]2CN1C(=O)CCc1ccc(Cl)cc1Cl (stereo partly drawn) [WO2022021841, 67] — 1600-fold lower, 40 nM
- CC1CNC(=O)[C@@H]1C[C@H](NC(=O)C1[C@@H]2CCC[C@H]2CN1C(=O)COc1ccc(OC(F)(F)F)cc1)C(=O)CF (stereo partly drawn) [WO2022021841, 80] — 2700-fold lower, 23 nM
- CC1CNC(=O)[C@@H]1C[C@@H](C=O)NC(=O)C1[C@@H]2CCC[C@H]2CN1C(=O)COc1ccc(Cl)cc1Cl (stereo partly drawn) [WO2022021841, 40] — 3700-fold lower, 17 nM
- CC(C)(OCc1ccc(F)cc1F)C(=O)N1C[C@@H]2CCC[C@H]2C1C(=O)N[C@H](C=O)C[C@@H]1CCNC1=O (stereo partly drawn) [WO2022021841, 62] — 1600-fold lower, 40 nM
- O=C(NCc1ccccc1)C(=O)[C@H](C[C@@H]1CCNC1=O)NC(=O)C1[C@@H]2CCC[C@H]2CN1C(=O)COc1ccc(Cl)cc1Cl (stereo partly drawn) [WO2022021841, 51] — within 1.5-fold, 50400 nM
- CC1CNC(=O)[C@@H]1C[C@H](NC(=O)C1[C@@H]2[C@H](CN1C(=O)COc1ccc(Cl)cc1Cl)C2(C)C)C(=O)CF (stereo partly drawn) [WO2022021841, 6] — 7000-fold lower, 9 nM
- CC1CNC(=O)[C@@H]1C[C@H](NC(=O)C1[C@H]2[C@H](CN1C(=O)COc1ccc(OC(F)(F)F)cc1)C2(C)C)C(=O)CF (stereo partly drawn) [WO2022021841, 79] — 970-fold lower, 65 nM
- CC(Oc1ccc(Cl)cc1Cl)C(=O)N1C[C@@H]2CCC[C@H]2C1C(=O)N[C@H](C=O)C[C@@H]1CCNC1=O (stereo partly drawn) [WO2022021841, 69] — 590-fold lower, 107 nM
- CC1CNC(=O)[C@@H]1C[C@@H](C=O)NC(=O)C1[C@@H]2[C@H](CN1C(=O)COc1ccc(Cl)c(Cl)c1)C2(C)C (stereo partly drawn) [WO2022021841, 48] — 5700-fold lower, 11 nM
- CC1CNC(=O)[C@@H]1C[C@@H](C=O)NC(=O)C1[C@@H]2[C@H](CN1C(=O)COc1cccc(-c3ccc(Cl)cc3)c1)C2(C)C (stereo partly drawn) [WO2022021841, 49] — 2900-fold lower, 22 nM
- O=C[C@H](C[C@@H]1CCNC1=O)NC(=O)C1[C@@H]2CCC[C@H]2CN1C(=O)/C=C/c1ccc(Cl)cc1Cl (stereo partly drawn) [WO2022021841, 70] — 780-fold lower, 81 nM
